In patent publication US9206200B2, “N-linked lactam M1 receptor positive allosteric mogulators” (Merck Sharp & Dohme Corp., priority 2011, dated 2015):
pEC50: −log10 of the molar value. Like-named read-outs stand apart in the source and are kept apart here.

Biological target: T1, acetylcholine muscarinic M1 receptor (Homo sapiens, UniProt P11229)
T1 construct: expressed in transfected cells; host or cells: CHOnfat cells (CHO cells with an NFAT reporter) expressing hM1, kept under Geneticin selection
T1 sequence (P11229 1-460): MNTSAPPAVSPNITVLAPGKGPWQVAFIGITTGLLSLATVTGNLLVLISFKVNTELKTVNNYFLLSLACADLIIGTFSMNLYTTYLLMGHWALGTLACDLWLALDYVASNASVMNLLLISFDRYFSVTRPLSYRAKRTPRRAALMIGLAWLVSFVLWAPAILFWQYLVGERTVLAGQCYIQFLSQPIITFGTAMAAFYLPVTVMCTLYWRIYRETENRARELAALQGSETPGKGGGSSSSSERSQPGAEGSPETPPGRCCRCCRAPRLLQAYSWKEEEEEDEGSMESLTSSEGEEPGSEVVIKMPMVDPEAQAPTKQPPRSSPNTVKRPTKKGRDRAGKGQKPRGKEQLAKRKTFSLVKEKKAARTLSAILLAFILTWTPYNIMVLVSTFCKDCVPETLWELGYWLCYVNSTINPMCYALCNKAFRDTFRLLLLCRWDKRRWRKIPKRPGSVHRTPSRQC
Assay: muscarinic FLIPR assay: intracellular calcium in CHOnfat/hM1 cells, potentiation of EC20 acetylcholine
Assay type: cell-based
Conditions: CHOnfat/hM1 cells, FLIPR, EC20 acetylcholine (3 nM final)
Procedure, shortened: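 CHOnfat cells stably expressing human M1, Fluo-4AM-loaded, in HBSS with 20 mM HEPES, 2.5 mM probenecid, 1% BSA. Compounds preincubated 4 min (printed "4 mM") before an EC20 acetylcholine challenge (3 nM final). FLIPR intracellular Ca²⁺ signal compared with 3 nM acetylcholine alone to detect potentiation.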

pEC50 (Table 1, read-out: M1 Pot.) | Structure (SMILES) | other results
5.86 | O=C1c2cc(CN3CCc4ccccc4C3c3ccncc3)c3ccccc3c2CN1c1ccccc1F (centres unmarked) [Example 65, 2-(2-fluorophenyl)-5-{[1-(pyridin-4-yl)-3,4-dihydroisoquinolin-2(1H)-yl]methyl}-1,2-dihydro-3H-benzo[e]isoindol-3-one] | –
6.56 | Cn1cc(N2CCN(Cc3cc4c(c5ccccc35)CN(c3ccccc3F)C4=O)CC2)cn1 [Example 66, 2-(2-fluorophenyl)-5-{[4-(1-methyl-1H-pyrazol-4-yl)piperazin-1-yl]methyl}-1,2-dihydro-3H-benzo[e]isoindol-3-one] | –
7.17 | O=C1c2cc(CN3CCN(c4ccc(F)cc4)CC3)c3ccccc3c2CN1[C@H]1CCCC[C@@H]1O [Example 67, 5-{[4-(4-fluorophenyl)piperazin-1-yl]methyl}-2-[(1S,2S)-2-hydroxycyclohexyl]-1,2-dihydro-3H-benzo[e]isoindol-3-one] | –
7.33 | CS(=O)(=O)c1ccc(N2CCN(Cc3cc4c(c5ccccc35)CN([C@H]3CCCC[C@@H]3O)C4=O)CC2)cc1 [Example 68, 2-[(1S,2S)-2-hydroxycyclohexyl]-5-({4-[4-(methylsulfonyl)phenyl]piperazin-1-yl}methyl)-1,2-dihydro-3H-benzo[e]isoindol-3-one] | –
7.31 | COc1ccc(N2CCN(Cc3cc4c(c5ccccc35)CN([C@H]3CCCC[C@@H]3O)C4=O)CC2)cc1 [Example 69, 2-[(1S,2S)-2-hydroxycyclohexyl]-5-{[4-(4-methoxyphenyl)piperazin-1-yl]methyl}-1,2-dihydro-3H-benzo[e]isoindol-3-one] | –
6.82 | COc1ccc(N2CCN(Cc3cc4c(c5ccccc35)CN([C@H]3CCCC[C@@H]3O)C4=O)C(C)C2)cc1 (stereo partly drawn) [Example 70, 2-[(1S,2S)-2-hydroxycyclohexyl] 5-{[4-(4-methoxyphenyl)-2-methylpiperazin-1-yl]methyl}-1,2-dihydro-3H-benzo[e]isoindol-3-one] | –
6.50 | COc1ccc(N2CC3CC2CN3Cc2cc3c(c4ccccc24)CN([C@H]2CCCC[C@@H]2O)C3=O)cc1 (some centres unmarked) [Example 71] | –
7.14 | O=C1c2cc(CN3CCN(c4ccccc4)CC3)c3ccccc3c2CN1[C@H]1CCCC[C@@H]1O [Example 72, 2-[(1S,2S)-2-hydroxycyclohexyl]-5-[(4-phenylpiperazin-1-yl)methyl]-1,2-dihydro-3H-benzo[e]isoindol-3-one] | –
6.70 | CC1c2c(cc(CN3CCN(c4ccccc4)CC3)c3ccccc23)C(=O)N1[C@@H]1CCCC[C@@H]1O (stereo partly drawn) [Example 73, 2-[(1R,2S)-2-hydroxycyclohexyl]-1-methyl-5-[(4-phenylpiperazin-1-yl)methyl]-1,2-dihydro-3H-benzo[e]isoindol-3-one] | –
7.34 | O=C1c2cc(CN3CCN(c4ccccn4)CC3)c3ccccc3c2CN1[C@H]1CCCC[C@@H]1O [Example 74, 2-[(1S,2S)-2-hydroxycyclohexyl]-5-[(4-pyridin-2-ylpiperazin-1-yl)methyl]-1,2-dihydro-3H-benzo[e]isoindol-3-one] | –
7.11 | O=C1c2cc(CN3CCN(c4ccccn4)CC3)c3ccccc3c2CN1c1ccccc1F [Example 75, 2-(2-fluorophenyl)-5-{[4-(pyridin-2-yl)piperazin-1-yl]methyl}-1,2-dihydro-3H-benzo[e]isoindol-3-one] | –
7.43 | O=C1c2cc(CN3CCN(c4cccnc4)CC3)c3ccccc3c2CN1[C@H]1CCCC[C@@H]1O [Example 76, 2-[(1S,2S)-2-hydroxycyclohexyl]-5-[(4-pyridin-3-ylpiperazin-1-yl)methyl]-1,2-dihydro-3H-benzo[e]isoindol-3-one] | –
6.67 | O=C1c2cc(CN3CCN(c4ccncc4)CC3)c3ccccc3c2CN1[C@H]1CCCC[C@@H]1O [Example 77, 2-[(1S,2S)-2-hydroxycyclohexyl]-5-[(4-pyridin-4-ylpiperazin-1-yl)methyl]-1,2-dihydro-3H-benzo[e]isoindol-3-one] | –
6.43 | CC1CN(Cc2cc3c(c4ccccc24)CN([C@H]2CCCC[C@@H]2O)C3=O)CCN1c1ccccc1 (stereo partly drawn) [Example 78, 2-[(1S,2S)-2-hydroxycyclohexyl]-5-[(3-methyl-4-phenylpiperazin-1-yl)methyl]-1,2-dihydro-3H-benzo[e]isoindol-3-one] | –
5.79 | Cn1cc(N2CCN(Cc3cc4c(c5ccccc35)CN([C@H]3CCCC[C@@H]3O)C4=O)CC2)cn1 [Example 80, 2-[(1S,2S)-2-hydroxycyclohexyl]-5-{[4-(1-methyl-1H-pyrazol-4-yl)piperazin-1-yl]methyl}-1,2-dihydro-3H-benzo[e]isoindol-3-one] | –
6.30 | Cn1cc(N2CCN(Cc3cc4c(c5ccccc35)CN([C@@H]3CCCC[C@H]3O)C4=O)CC2)cn1 [Example 81, 2-[(1R,2R)-2-hydroxycyclohexyl]-5-{[4-(1-methyl-1H-pyrazol-4-yl)piperazin-1-yl]methyl}-1,2-dihydro-3H-benzo[e]isoindol-3-one] | –
5.80 | Cn1cc(N2CCN(Cc3cc4c(c5ccccc35)CN(C3CCOCC3)C4=O)CC2)cn1 [Example 82, 5-{[4-(1-methyl-1H-pyrazol-4-yl)piperazin-1-yl]methyl}-2-(tetrahydro-2H-pyran-4-yl)-1,2-dihydro-3H-benzo[e]isoindol-3-one] | –
5.41 | Cn1cc(N2CCN(Cc3cc4c(c5ccccc35)CN(C3CCCOC3)C4=O)CC2)cn1 (centres unmarked) [Example 83, 5-{[4-(1-methyl-1H-pyrazol-4-yl)piperazin-1-yl]methyl}-2-(tetrahydro-2H-pyran-3-yl)-1,2-dihydro-3H-benzo[e]isoindol-3-one] | –
5.49 | O=C1c2cc(CN3CCN(c4cc5ccccc5cn4)CC3)c3ccccc3c2CN1c1ccccc1F [Example 84, 2-(2-fluorophenyl)-5-[(4-isoquinolin-3-ylpiperazin-1-yl)methyl]-1,2-dihydro-3H-benzo[e]isoindol-3-one] | –
5.94 | O=C1c2cc(CN3CCN(c4ccc5ncsc5c4)CC3)c3ccccc3c2CN1c1ccccc1F [Example 85, 5-{[4-(1,3-benzothiazol-6-yl)piperazin-1-yl]methyl}-2-(2-fluorophenyl)-1,2-dihydro-3H-benzo[e]isoindol-3-one] | –
– | O=C1c2cc(CN3CCCCC3)c3cccnc3c2CN1[C@H]1CCCC[C@@H]1O [Example 86, 8-[(1S,2S)-2-hydroxycyclohexyl]-5-(piperidin-1-ylmethyl)-8,9-dihydro-7H-pyrrolo[3,4-h]quinolin-7-one] | pEC50 (Table 2, read-out: M1 Pot.): 5.54
– | CC1CCN(Cc2cc3c(c4ncccc24)CN([C@H]2CCCC[C@@H]2O)C3=O)CC1 [Example 87, 8-[(1S,2S)-2-hydroxycyclohexyl]-5-[(4-methylpiperidin-1-yl)methyl]-8,9-dihydro-1H-pyrrolo[3,4-h]quinolin-7-one] | pEC50 (M1 Pot., Table 2): 6.70

Structure (SMILES) | pEC50 (Table 1, read-out: M1 Pot.) | other results
N#CC1(c2ccncc2)CCN(Cc2cc3c(c4ccccc24)CN([C@H]2CCCC[C@@H]2O)C3=O)CC1 [Example 58, 1-({2-[(1S,2S)-2-hydroxycyclohexyl]-3-oxo-2,3-dihydro-1H-benzo[e]isoindol-5-yl}methyl)-4-pyridin-4-ylpiperidine-4-carbonitrile] | 7.68 | –
N#CC1(c2ccccc2Cl)CCN(Cc2cc3c(c4ccccc24)CN([C@H]2CCCC[C@@H]2O)C3=O)CC1 [Example 59, 4-(2-chlorophenyl)-1-({2-[(1S,2S)-2-hydroxycyclohexyl]-3-oxo-2,3-dihydro-1H-benzo[e]isoindol-5-yl}methyl)piperidine-4-carbonitrile] | 7.34 | –
N#CC1(c2ccccc2F)CCN(Cc2cc3c(c4ccccc24)CN([C@@H]2CCCC[C@@H]2O)C3=O)CC1 [Example 60, 4-(2-fluorophenyl)-1-({2-[(1R,2S)-2-hydroxycyclohexyl]-3-oxo-2,3-dihydro-1H-benzo[e]isoindol-5-yl}methyl)piperidine-4-carbonitrile] | 7.36 | –
Cc1ccccc1C1(C#N)CCN(Cc2cc3c(c4ccccc24)CN([C@@H]2CCCC[C@@H]2O)C3=O)CC1 [Example 61, 1-({2-[(1R,2S)-2-hydroxycyclohexyl]-3-oxo-2,3-dihydro-1H-benzo[e]isoindol-5-yl}methyl)-4-(2-methylphenyl)piperidine-4-carbonitrile] | 6.97 | –
N#CC1(c2ccccn2)CCN(Cc2cc3c(c4ccccc24)CN(c2ccccc2F)C3=O)CC1 [Example 62, 1-{[2-(2-fluorophenyl)-3-oxo-2,3-dihydro-1H-benzo[e]isoindol-5-yl]methyl}-4-pyridin-2-ylpiperidine-4-carbonitrile] | 6.19 | –
Cc1ccnc(C2(C#N)CCN(Cc3cc4c(c5ccccc35)CN(c3ccccc3F)C4=O)CC2)c1 [Example 63, 1-{[2-(2-fluorophenyl)-3-oxo-2,3-dihydro-1H-benzo[e]isoindol-5-yl]methyl}-4-(4-methylpyridin-2-yl)piperidine-4-carbonitrile] | 6.26 | –
Cc1ccnc(C2(C#N)CCN(Cc3cc4c(c5ccccc35)CN([C@H]3CCCC[C@@H]3O)C4=O)CC2)c1 [Example 64, 1-({2-[(1S,2S)-2-hydroxycyclohexyl]-3-oxo-2,3-dihydro-1H-benzo[e]isoindol-5-yl}methyl)-4-(4-methylpyridin-2-yl)piperidine-4-carbonitrile] | 8.01 | –
